Measurements: ChEMBL document CHEMBL6127052, “Discovery of membrane-targeting amphiphilic honokiol derivatives containing an oxazolethione moiety to combat methicillin-resistant Staphylococcus aureus (MRSA) infections” (Eur J Med Chem, 2024)
The source made the active and inactive calls. The calls are words filed in the database; no cut-off is given here.

System: Staphylococcus aureus
Test: Antibacterial activity against Staphylococcus aureus ATCC 29213 by CLSI based micro-broth dilution method
Type: functional
Details: not given
Compound `C=CCc1cc(-c2ccc(OCCC[N+](C)(C)CC(=O)NCCCC)c(CC=C)c2)c2oc(=S)n(Cc3ccc(Br)cc3)c2c1.[Br-]` has an MIC of 32 µg/mL.
`C=CCc1cc(-c2ccc(OCCC[N+](C)(C)CC(=O)NCCCC)c(CC=C)c2)c2oc(=S)n(Cc3c(Cl)cccc3Cl)c2c1.[Br-]` gave an MIC of 16 µg/mL.

System: Staphylococcus aureus
Test: Antibacterial activity against methicillin-resistant Staphylococcus aureus N315 by CLSI based micro-broth dilution method
Type: functional
Details: not given
`C=CCc1cc(-c2ccc(OCCC[N+](C)(C)CC(=O)NCCCC)c(CC=C)c2)c2oc(=S)n(Cc3ccc(Br)cc3)c2c1.[Br-]` gave an MIC of 32 µg/mL.
In the case of `C=CCc1cc(-c2ccc(OCCC[N+](C)(C)CC(=O)NCCCC)c(CC=C)c2)c2oc(=S)n(Cc3c(Cl)cccc3Cl)c2c1.[Br-]`, the MIC is reported as 32 µg/mL.

System: Staphylococcus aureus
Test: Antibacterial activity against methicillin-resistant Staphylococcus aureus clinical isolate M11 by CLSI based micro-broth dilution method
Type: functional
Details: not given
`C=CCc1cc(-c2ccc(OCCC[N+](C)(C)CC(=O)NCCCC)c(CC=C)c2)c2oc(=S)n(Cc3ccc(Br)cc3)c2c1.[Br-]` gave an MIC of 16 µg/mL.
Compound `C=CCc1cc(-c2ccc(OCCC[N+](C)(C)CC(=O)NCCCC)c(CC=C)c2)c2oc(=S)n(Cc3c(Cl)cccc3Cl)c2c1.[Br-]` has an MIC of 8 µg/mL.

System: Staphylococcus aureus
Test: Antibacterial activity against methicillin-resistant Staphylococcus aureus clinical isolate M12 by CLSI based micro-broth dilution method
Type: functional
Details: not given
Work on `C=CCc1cc(-c2ccc(OCCC[N+](C)(C)CC(=O)NCCCC)c(CC=C)c2)c2oc(=S)n(Cc3ccc(Br)cc3)c2c1.[Br-]` yielded an MIC of 16 µg/mL.
Compound `C=CCc1cc(-c2ccc(OCCC[N+](C)(C)CC(=O)NCCCC)c(CC=C)c2)c2oc(=S)n(Cc3c(Cl)cccc3Cl)c2c1.[Br-]` has an MIC of 4 µg/mL.

System: Staphylococcus aureus
Test: Antibacterial activity against methicillin-resistant Staphylococcus aureus clinical isolate M13 by CLSI based micro-broth dilution method
Type: functional
Details: not given
`C=CCc1cc(-c2ccc(OCCC[N+](C)(C)CC(=O)NCCCC)c(CC=C)c2)c2oc(=S)n(Cc3ccc(Br)cc3)c2c1.[Br-]` showed an MIC of 16 µg/mL.
`C=CCc1cc(-c2ccc(OCCC[N+](C)(C)CC(=O)NCCCC)c(CC=C)c2)c2oc(=S)n(Cc3c(Cl)cccc3Cl)c2c1.[Br-]` showed an MIC of 16 µg/mL.

System: Staphylococcus aureus
Test: Antibacterial activity against methicillin-resistant Staphylococcus aureus clinical isolate M14 by CLSI based micro-broth dilution method
Type: functional
Details: not given
With `C=CCc1cc(-c2ccc(OCCC[N+](C)(C)CC(=O)NCCCC)c(CC=C)c2)c2oc(=S)n(Cc3ccc(Br)cc3)c2c1.[Br-]` the MIC was 16 µg/mL.
With `C=CCc1cc(-c2ccc(OCCC[N+](C)(C)CC(=O)NCCCC)c(CC=C)c2)c2oc(=S)n(Cc3c(Cl)cccc3Cl)c2c1.[Br-]` the MIC was 16 µg/mL.

System: Staphylococcus aureus
Test: Antibacterial activity against methicillin-resistant Staphylococcus aureus clinical isolate M16 by CLSI based micro-broth dilution method
Type: functional
Details: not given
Compound `C=CCc1cc(-c2ccc(OCCC[N+](C)(C)CC(=O)NCCCC)c(CC=C)c2)c2oc(=S)n(Cc3ccc(Br)cc3)c2c1.[Br-]` has an MIC of 16 µg/mL.
Work on `C=CCc1cc(-c2ccc(OCCC[N+](C)(C)CC(=O)NCCCC)c(CC=C)c2)c2oc(=S)n(Cc3c(Cl)cccc3Cl)c2c1.[Br-]` yielded an MIC of 8 µg/mL.

System: Staphylococcus aureus
Test: Antibacterial activity against methicillin-resistant Staphylococcus aureus clinical isolate M17 by CLSI based micro-broth dilution method
Type: functional
Details: not given
`C=CCc1cc(-c2ccc(OCCC[N+](C)(C)CC(=O)NCCCC)c(CC=C)c2)c2oc(=S)n(Cc3ccc(Br)cc3)c2c1.[Br-]` gave an MIC of 16 µg/mL.
`C=CCc1cc(-c2ccc(OCCC[N+](C)(C)CC(=O)NCCCC)c(CC=C)c2)c2oc(=S)n(Cc3c(Cl)cccc3Cl)c2c1.[Br-]` gave an MIC of 16 µg/mL.

System: Staphylococcus aureus
Test: Antibacterial activity against methicillin-resistant Staphylococcus aureus clinical isolate M20 by CLSI based micro-broth dilution method
Type: functional
Details: not given
`C=CCc1cc(-c2ccc(OCCC[N+](C)(C)CC(=O)NCCCC)c(CC=C)c2)c2oc(=S)n(Cc3ccc(Br)cc3)c2c1.[Br-]` gave an MIC of 16 µg/mL.
`C=CCc1cc(-c2ccc(OCCC[N+](C)(C)CC(=O)NCCCC)c(CC=C)c2)c2oc(=S)n(Cc3c(Cl)cccc3Cl)c2c1.[Br-]` gave an MIC of 8 µg/mL.

System: Staphylococcus aureus
Test: Antibacterial activity against methicillin-resistant Staphylococcus aureus clinical isolate M21 by CLSI based micro-broth dilution method
Type: functional
Details: not given
For `C=CCc1cc(-c2ccc(OCCC[N+](C)(C)CC(=O)NCCCC)c(CC=C)c2)c2oc(=S)n(Cc3ccc(Br)cc3)c2c1.[Br-]`, the MIC was 16 µg/mL.
With `C=CCc1cc(-c2ccc(OCCC[N+](C)(C)CC(=O)NCCCC)c(CC=C)c2)c2oc(=S)n(Cc3c(Cl)cccc3Cl)c2c1.[Br-]` the MIC was 8 µg/mL.

System: Staphylococcus aureus
Test: Antibacterial activity against methicillin-resistant Staphylococcus aureus clinical isolate M22 by CLSI based micro-broth dilution method
Type: functional
Details: not given
For `C=CCc1cc(-c2ccc(OCCC[N+](C)(C)CC(=O)NCCCC)c(CC=C)c2)c2oc(=S)n(Cc3ccc(Br)cc3)c2c1.[Br-]`, the MIC was 32 µg/mL.
In the case of `C=CCc1cc(-c2ccc(OCCC[N+](C)(C)CC(=O)NCCCC)c(CC=C)c2)c2oc(=S)n(Cc3c(Cl)cccc3Cl)c2c1.[Br-]`, the MIC is reported as 32 µg/mL.

System: Staphylococcus aureus
Test: Antibacterial activity against methicillin-resistant Staphylococcus aureus clinical isolate M23 by CLSI based micro-broth dilution method
Type: functional
Details: not given
`C=CCc1cc(-c2ccc(OCCC[N+](C)(C)CC(=O)NCCCC)c(CC=C)c2)c2oc(=S)n(Cc3ccc(Br)cc3)c2c1.[Br-]` showed an MIC of 16 µg/mL.
For `C=CCc1cc(-c2ccc(OCCC[N+](C)(C)CC(=O)NCCCC)c(CC=C)c2)c2oc(=S)n(Cc3c(Cl)cccc3Cl)c2c1.[Br-]`, the MIC was 8 µg/mL.

System: Escherichia coli
Test: Antibacterial activity against Escherichia coli ATCC 25922 by CLSI based micro-broth dilution method
Type: functional
Details: not given
In the case of `C=CCc1cc(-c2ccc(OCCC[N+](C)(C)CC(=O)NCCCC)c(CC=C)c2)c2oc(=S)n(Cc3ccc(Br)cc3)c2c1.[Br-]`, the MIC is reported as over 128 µg/mL.
`C=CCc1cc(-c2ccc(OCCC[N+](C)(C)CC(=O)NCCCC)c(CC=C)c2)c2oc(=S)n(Cc3c(Cl)cccc3Cl)c2c1.[Br-]` showed an MIC of over 128 µg/mL.

System: not listed separately
Test: Hemolytic activity in sheep erythrocytes incubated for 1 hr by absorbance based assay
Type: toxicity, cell-based, Ovis aries, Erythrocyte
Details: not given
`C=CCc1cc(-c2ccc(OCCC[N+](C)(C)CC(=O)NCCCC)c(CC=C)c2)c2oc(=S)n(Cc3ccc(Br)cc3)c2c1.[Br-]` showed an HC50 at 1 h of 489 µg/mL.
With `C=CCc1cc(-c2ccc(OCCC[N+](C)(C)CC(=O)NCCCC)c(CC=C)c2)c2oc(=S)n(Cc3c(Cl)cccc3Cl)c2c1.[Br-]` the HC50 at 1 h was 400 µg/mL.

System: not listed separately
Test: Selectivity index, ratio of HC50 for hemolytic activity in sheep erythrocytes to MIC for antibacterial activity against Staphylococcus aureus ATCC 29213
Type: toxicity, cell-based, RBC
Details: not given
Work on `C=CCc1cc(-c2ccc(OCCC[N+](C)(C)CC(=O)NCCCC)c(CC=C)c2)c2oc(=S)n(Cc3ccc(Br)cc3)c2c1.[Br-]` yielded a selectivity ratio of 15.3.
For `C=CCc1cc(-c2ccc(OCCC[N+](C)(C)CC(=O)NCCCC)c(CC=C)c2)c2oc(=S)n(Cc3c(Cl)cccc3Cl)c2c1.[Br-]`, the selectivity ratio was 25.

System: Staphylococcus aureus
Test: Induction of resistance development in Staphylococcus aureus ATCC 29213 assessed as increase in MIC at 0.5 times MIC treated for 4 days of consecutive passages
Type: functional, organism-based
Details: time 4.0 day
In the case of `CCn1cc(C(=O)O)c(=O)c2cc(F)c(N3CCNCC3)cc21` [NORFLOXACIN], the Activity is reported as “Active”.

System: Staphylococcus aureus
Test: Induction of resistance development in Staphylococcus aureus ATCC 29213 assessed as fold increase in MIC at 0.5 times MIC treated for 18 days of consecutive passages
Type: functional
Details: time 18 day
With `CCn1cc(C(=O)O)c(=O)c2cc(F)c(N3CCNCC3)cc21` [NORFLOXACIN] the “fold change (FC)” value was 128.
